Measured values: PubChem BioAssay AID248 (DTP/NCI, 2004)
“And” between values parts separate entries of the source, which are not always exact repeats. Equal entries are not always repeated. Toxic doses and inconclusive results are not listed. Peptide text beside a SMILES is read from it. * marks the point of attachment. Cbz = O=C(OCc1ccccc1)*; Bn = c1ccc(C*)cc1

Tested on: L1210 leukemia ip in BDF1 mice, survival T/C
Assay: NCI In Vivo Anticancer Drug Screen. Data for tumor model L1210 Leukemia (intraperitoneal) in B6D2F1 (BDF1) mice
Conditions: endpoint: mean survival time, higher = longer survival
Procedure, shortened: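 Transplanted-tumor mice were given test agent; controls received vehicle only. Survival readings from the two groups were divided (treated over control).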

[1] = dose: 100.0 mg/kg/injection, schedule: Q04DX003 (ip), vehicle: Klucel (hydroxypropylcellulose) (HPC)
[2] = dose: 200.0 mg/kg/injection, schedule: Q04DX003 (ip), vehicle: Klucel (hydroxypropylcellulose) (HPC)
[3] = dose: 400.0 mg/kg/injection, schedule: Q04DX003 (ip), vehicle: Klucel (hydroxypropylcellulose) (HPC)
[4] = dose: 100.0 mg/kg/injection, schedule: Q04DX003 (ip), vehicle: saline with Tween-80
[5] = dose: 100.0 mg/kg/injection, schedule: Q04DX003 (ip), vehicle: saline
[6] = dose: 50.0 mg/kg/injection, schedule: Q01DX001 (ip), vehicle: saline
[7] = dose: 100.0 mg/kg/injection, schedule: Q01DX001 (ip), vehicle: saline
[8] = dose: 100.0 mg/kg/injection, schedule: Q01DX009 (ip), vehicle: Klucel (hydroxypropylcellulose) (HPC)
[9] = dose: 200.0 mg/kg/injection, schedule: Q01DX009 (ip), vehicle: Klucel (hydroxypropylcellulose) (HPC)
[10] = dose: 200.0 mg/kg/injection, schedule: Q01DX001 (ip), vehicle: saline
[11] = dose: 400.0 mg/kg/injection, schedule: Q01DX001 (ip), vehicle: saline

## c1ccc(C(c2ccccc2)(c2nccs2)n2ccnc2)cc1
[1]
  T/C: 95 % of control
[2]
  T/C: 98 % of control
[3]
  T/C: 104 % of control

## O=C(COc1ccc(Cl)c(Cl)c1)Nc1ccc[n+](Cc2ccccc2S(=O)(=O)F)c1
[4]
  T/C: 96 % of control

## CCN(CC)Cc1cc(Nc2cc(OC)cc3cccnc23)ccc1O
dose: 10.0 mg/kg/injection, schedule: Q01DX001 (ip), vehicle: saline
  T/C: 111 % of control
dose: 19.0 mg/kg/injection, schedule: Q01DX001 (ip), vehicle: saline
  T/C: 110 % of control
dose: 38.0 mg/kg/injection, schedule: Q01DX001 (ip), vehicle: saline
  T/C: 100 % of control

## CCOCC[n+]1ccc(C)cc1
[5]
  T/C: 107 % of control
dose: 200.0 mg/kg/injection, schedule: Q04DX003 (ip), vehicle: saline
  T/C: 95 % of control

## Cc1ccc(N=Cc2cc(Cl)cc(Cl)c2OC(=O)c2ccccc2)cc1Cl
dose: 100.0 mg/kg/injection, schedule: Q04DX002 (ip), vehicle: Klucel (hydroxypropylcellulose) (HPC)
  T/C: 94 % of control
dose: 200.0 mg/kg/injection, schedule: Q04DX002 (ip), vehicle: Klucel (hydroxypropylcellulose) (HPC)
  T/C: 111 % of control
dose: 400.0 mg/kg/injection, schedule: Q04DX002 (ip), vehicle: Klucel (hydroxypropylcellulose) (HPC)
  T/C: 97 % of control

## CCOC(=O)CCC(NC(=O)c1ccc(NCc2nnc3nc(N)nc(N)c3n2)cc1)C(=O)OCC (stereo not given)
dose: 25.0 mg/kg/injection, schedule: Q01DX001 (ip), vehicle: saline with Tween-80
  T/C: 100 % of control
dose: 50.0 mg/kg/injection, schedule: Q01DX001 (ip), vehicle: saline with Tween-80
  T/C: 95 % of control
dose: 100.0 mg/kg/injection, schedule: Q01DX001 (ip), vehicle: saline with Tween-80
  T/C: 107 % of control

## NC(=O)C1=CN(Cc2ccccc2)C=CC1
[4]
  T/C: 100 % of control
dose: 200.0 mg/kg/injection, schedule: Q04DX003 (ip), vehicle: saline with Tween-80
  T/C: 106 % of control
dose: 400.0 mg/kg/injection, schedule: Q04DX003 (ip), vehicle: saline with Tween-80
  T/C: 94 % of control

## CC#CC(=O)c1ccccc1
dose: 7.5 mg/kg/injection, schedule: Q04DX003 (ip), vehicle: saline
  T/C: 97 % of control
dose: 15.0 mg/kg/injection, schedule: Q04DX003 (ip), vehicle: saline
  T/C: 94 % of control
dose: 30.0 mg/kg/injection, schedule: Q04DX003 (ip), vehicle: saline
  T/C: 95 % of control

## CN(C)CCCn1c(=O)c2ccccc2c2ccccc21
[6]
  T/C: 101 % of control
dose: 50.0 mg/kg/injection, schedule: Q01DX015 (ip), vehicle: saline
  T/C: 98 % of control
[7]
  T/C: 103 % of control
dose: 100.0 mg/kg/injection, schedule: Q01DX015 (ip), vehicle: saline
  T/C: 108 % of control

## CCOC(=O)/C=C/Cc1cc(-c2ccccc2)ccc1O
dose: 100.0 mg/kg/injection, schedule: Q04DX003 (ip), vehicle: acetone
  T/C: 98 % of control
dose: 200.0 mg/kg/injection, schedule: Q04DX003 (ip), vehicle: acetone
  T/C: 98 % of control
dose: 400.0 mg/kg/injection, schedule: Q04DX003 (ip), vehicle: acetone
  T/C: 103 % of control

## C=CCN1CCCCC1C1(c2ccccc2)CCCC1 (stereo not given)
dose: 75.0 mg/kg/injection, schedule: Q01DX001 (ip), vehicle: acid diluted with saline
  T/C: 92 % of control

## COCCCNP1(=O)OCC(C)([N+](=O)[O-])CO1 (stereo not given)
dose: 50.0 mg/kg/injection, schedule: Q01DX001 (ip), vehicle: carboxymethylcellulose (CMC)
  T/C: 100 % of control
dose: 100.0 mg/kg/injection, schedule: Q01DX001 (ip), vehicle: carboxymethylcellulose (CMC)
  T/C: 94 % of control
dose: 200.0 mg/kg/injection, schedule: Q01DX001 (ip), vehicle: carboxymethylcellulose (CMC)
  T/C: 94 % of control
dose: 400.0 mg/kg/injection, schedule: Q01DX001 (ip), vehicle: carboxymethylcellulose (CMC)
  T/C: 92 % of control

## O=C(C=C(C(F)(F)F)C(F)(F)F)c1cccs1
dose: 3.12 mg/kg/injection, schedule: Q01DX009 (ip), vehicle: saline
  T/C: 101 % of control
dose: 6.25 mg/kg/injection, schedule: Q01DX009 (ip), vehicle: saline
  T/C: 101 % of control
dose: 12.5 mg/kg/injection, schedule: Q01DX009 (ip), vehicle: saline
  T/C: 101 % of control
dose: 12.5 mg/kg/injection, schedule: Q04DX003 (ip), vehicle: saline
  T/C: 93 % of control
dose: 25.0 mg/kg/injection, schedule: Q01DX009 (ip), vehicle: saline
  T/C: 110 % of control
dose: 25.0 mg/kg/injection, schedule: Q04DX003 (ip), vehicle: saline
  T/C: 97 % of control
dose: 50.0 mg/kg/injection, schedule: Q04DX003 (ip), vehicle: saline
  T/C: 93 % of control
[5]
  T/C: 98 % of control

## CCOC(=O)c1cnc(SC)nc1NC(C)(C)C
[1]
  T/C: 101 % of control
[2]
  T/C: 100 % of control
[3]
  T/C: 94 % of control

## COC(=O)CN(c1c(C)cc(C)c(NS(=O)(=O)c2ccccc2)c1C)S(=O)(=O)c1ccccc1
dose: 100.0 mg/kg/injection, schedule: Q01DX001 (ip), vehicle: Klucel (hydroxypropylcellulose) (HPC)
  T/C: 92 % of control
dose: 200.0 mg/kg/injection, schedule: Q01DX001 (ip), vehicle: Klucel (hydroxypropylcellulose) (HPC)
  T/C: 96 % of control
dose: 400.0 mg/kg/injection, schedule: Q01DX001 (ip), vehicle: Klucel (hydroxypropylcellulose) (HPC)
  T/C: 97 % of control

## O=C1NNC(=O)NN1
dose: 50.0 mg/kg/injection, schedule: Q01DX009 (ip), vehicle: Klucel (hydroxypropylcellulose) (HPC)
  T/C: 97 % of control
[8]
  T/C: 103 % of control
[1]
  T/C: 100 % of control and 101 % of control
[9]
  T/C: 105 % of control
[2]
  T/C: 95 % of control
[3]
  T/C: 94 % of control

## CN(CCC#N)c1ccc(C=C(C#N)C#N)cc1
[8]
  T/C: 92 % of control
[9]
  T/C: 95 % of control
dose: 400.0 mg/kg/injection, schedule: Q01DX009 (ip), vehicle: Klucel (hydroxypropylcellulose) (HPC)
  T/C: 97 % of control

## COC(=O)C(NC(=O)C(CSCc1ccccc1)NC(=O)OCc1ccccc1)C(C)C (stereo not given) (Cbz-Cys(Bn)-Val-OMe; configuration not given here)
[1]
  T/C: 95 % of control
[2]
  T/C: 97 % of control
[3]
  T/C: 95 % of control

## O=C(CCCC(=O)NNC(=O)Nc1cccc([N+](=O)[O-])c1)NNC(=O)Nc1cccc([N+](=O)[O-])c1
[6]
  T/C: 102 % of control
[7]
  T/C: 102 % of control
[10]
  T/C: 96 % of control
[11]
  T/C: 102 % of control

## S=C(Nc1ccccc1)Nc1nccs1
[7]
  T/C: 104 % of control
[1]
  T/C: 105 % of control
[10]
  T/C: 101 % of control
[2]
  T/C: 101 % of control
[11]
  T/C: 101 % of control
[3]
  T/C: 103 % of control

## CCOC(=O)CCC(NC(=O)c1cc(Cl)c(N(CC)Cc2cnc3nc(N)nc(N)c3n2)c(Cl)c1)C(=O)OCC (stereo not given)
dose: 25.0 mg/kg/injection, schedule: Q01DX009 (ip), vehicle: Klucel (hydroxypropylcellulose) (HPC)
  T/C: 179 % of control
